Data from US10787424B2, “Oxopiperazine helix mimetics for control of Hypoxia-Inducible gene expression” (NEW YORK UNIVERSITY, priority 2014, dated 2020).
Where two headings read alike, the source gives them in different places. Values belong to the compound of their own block, whether it stands above or below them.

Key:
[1] = molecular target: T1, human p300 CH1 domain (p300-CH1) (Homo sapiens, UniProt Q09472); experiment: Tryptophan fluorescence binding assay for p300-CH1
T1 construct: human p300 CH1 domain (amino acid residues 323-423); GST (N, cleaved yes); made in house; host or cells: E. coli BL21(DE3)
Description: The DNA sequence of the human p300 CH1 domain (amino acid residues 323-423) was subcloned into a pUC57 plasmid by Genscript, Inc. After transformation of JM109 bacteria (Promega) with the plasmid, it was amplified and purified. Then the gene of interest was subcloned between BamHI and EcoRI restriction sites of pGEX-4T-2 expression vector (Amersham).
The pGEX-4T-2-p300 fusion vector was transformed into BL21(DE3) competent E.coli (Novagen) in M9 minimal media with ^15NH4Cl as the primary nitrogen source. Protein production was induced with 1 mM IPTG at OD600 of 1 for 16 hours at 15° C. Production of the desired p300-CH1-GST fusion product was verified by SDS-PAGE. Bacteria were harvested and resuspended in the lysis buffer with 20 mM Phosphate buffer (Research Products International, Corp.), 100 μM DTT (Fisher), 100 μM ZnSO4 (Sigma), 0.5% TritonX 100 (Sigma), […] Pepstatin A (Research Products International, Corp.), […] Leupeptin A (Research Products International, Corp.), 500 μM PMSF (Sigma), and 0.5% glycerol at pH 8.0. Pellets were lysed by sonication and centrifuged at 4° C. and 20,000 rpm for 20 minutes. Fusion protein was collected from the bacterial supernatant and purified by affinity chromatography using glutathione Sepharose 4B beads (Amersham) prepared according to the manufacturer's directions. GST-tag was cleaved by thrombin and protein was eluted from resin. Collected fractions were assayed by SDS-PAGE gel; pooled fractions were treated with protease inhibitor cocktail (Sigma) and against a buffer containing 10 mM Tris, 50 mM NaCl, 2 mM DTT (Fisher), and 3 equivalents ZnSO4 at pH 8.0 to ensure proper folding (vide supra).
Relative affinities of OHMs for p300-CH1 were determined using a tryptophan fluorescence binding assay. Spectra were recorded on a QuantaMaster 40 spectrofluorometer (Photon Technology International) in a 10 mm quartz fluorometer cell at 25° C. with 4 nm excitation and 4 nm emission slit widths from 200 to 400 nm at intervals of 1 nm/s. Samples were excited at 295 nm and fluorescence emission was measured from 200-400 nm and recorded at 335 nm. OHM stock solutions were prepared in DMSO. Aliquots containing 1 μL DMSO stocks were added to 400 μL of 1 μM p300-CH1 in 50 mM Tris and 100 μM NaCl (pH 8.0). After each addition, the sample was allowed to equilibrate for 5 minutes before UV analysis. Background absorbance and sample dilution effects were corrected by titrating DMSO into p300-CH1 in an analogous manner. Final fluorescence is reported as the absolute value of [(F1-F0)/F1]*100, where F1 is the final fluorescence upon titration, and F0 is the fluorescence of the blank DMSO titration. EC50 values for each peptide were determined by fitting the experimental data to a sigmoidal dose-response nonlinear regression model in GraphPad Prism 5.0, and the dissociation constants, KD, were obtained from equation (2). KD=(RT×(1−FSB)+LST×FSB^2)/FSB−LST (2)
where: • RT=Total concentration of p300-CH1 • LST=Total concentration of fluorescent peptide • FSB=Fraction of bound fluorescent peptide Results and Discussion of Examples 1-8

p300-CH1 domain = molecular target: T2, p300-CH1 domain (Homo sapiens, UniProt Q09472); details: 15N-labeled CH1; earlier study; cited from earlier work
T2 construct: human p300 CH1 domain (amino acid residues 323-423); GST (N, cleaved yes); made in house; host or cells: E. coli BL21(DE3)

HIF signaling = details: cell culture, at micromolar levels; earlier study; cited from earlier work
[2] = test system: triple-negative breast cancer cell line MDA-MB-231 xenograft; details: MDA-MB-231 mouse xenograft; earlier study; cited from earlier work
[3] = test system: over 28,000 transcripts (genome-wide off-target regulation); details: microarray gene expression profiling; earlier study; cited from earlier work
[4] = binding affinity for p300-CH1, intrinsic tryptophan fluorescence assay (Table 8), read-out: Kd

T1 sequence (Q09472 323-423): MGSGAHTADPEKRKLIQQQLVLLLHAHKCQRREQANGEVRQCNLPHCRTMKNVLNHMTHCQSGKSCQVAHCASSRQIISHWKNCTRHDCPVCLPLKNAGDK
T2 sequence (Q09472 323-423): as above

SMILES: CCCC[C@@H](C(=O)N1CCN([C@@H](CCC(N)=O)C(N)=O)C(=O)[C@@H]1C)N1CCN[C@@H](CC(C)C)C1=O [OHM 23, L(Nle)AQ]
Kd [1, 4]: 0.03 ± 0.01 µM
Kd ([1]; cross-specificity, p300-CH1 (Table 9), read-out: p300 Kd): 0.03 ± 0.01 µM
enhancement in binding affinity over parent OHM 21 ([1]; p300, relative to OHM 21): 13 fold

SMILES: CC(C)CC[C@@H]1NCCN([C@@H](CCC(C)C)C(=O)N2CCN([C@@H](CCC(N)=O)C(N)=O)C(=O)[C@@H]2C)C1=O [OHM 25, (Hle)(Hle)AQ]
Kd [1, 4]: 0.16 ± 0.06 µM

SMILES: CC(C)C[C@@H]1NCCN([C@@H](CC(C)C)C(=O)N2CCN([C@@H](C)C(N)=O)C(=O)[C@@H]2C)C1=O [OHM 26]
Kd [1, 4]: 0.62 ± 0.27 µM

SMILES: C[C@@H]1NCCN([C@@H](C)C(=O)N2CCN([C@@H](C)C(N)=O)C(=O)[C@@H]2C)C1=O [OHM 27]
Kd [1, 4]: > 10 µM

More lines, main results first:

Kd [1, 4]: 0.53 ± 0.14 µM
SMILES: CC(C)C[C@@H]1NCCN([C@@H](CC(C)C)C(=O)N2CCN([C@@H](CCC(N)=O)C(N)=O)C(=O)[C@@H]2C)C1=O [OHM 21, LLAQ-NH2]
HSQC resonance shifts on addition of compound (p300-CH1 domain): consistent shifts in resonances of residues corresponding to the HIF1α816-824 binding pocket
downregulation of HIF signaling (HIF signaling): efficiently downregulated HIF signaling
effect on tumor levels [2]: reduced tumor levels
specificity on genome-wide scale [3]: remarkably specific

Kd [1, 4]: > 10 µM
Kd ([1]; p300-CH1, text value, read-out: Kd for p300-CH1): > 30 µM
SMILES: CC(C)C[C@@H]1NCCN([C@@H](C)C(=O)N2CCN([C@@H](CCC(N)=O)C(N)=O)C(=O)[C@@H]2C)C1=O [OHM 22, LAAQ]
